Results reported in patent US20240116918A1, “SUBSTITUTED TRICYCLIC COMPOUND AS PRMT5 INHIBITOR AND USE THEREOF” (NANJING SANHOME PHARMACEUTICAL CO., LTD., priority 2019, published 2024).
pIC50: −log10 of the molar value.

Experiments:
[1] = target: PRMT5 (Homo sapiens (Human), UniProt O14744); assay: In vitro evaluation of kinase activity (PRMT5 enzymatic assay, [3H]-SAM FlashPlate); type: biochemical; settings: polypeptide substrate H4(1-21)S1ac 100 nM, [3H]-SAM 250 nM, 25° C., 60 min; read-out: Enzyme IC50 PRMT5
Sequence of PRMT5 (O14744 whole entry): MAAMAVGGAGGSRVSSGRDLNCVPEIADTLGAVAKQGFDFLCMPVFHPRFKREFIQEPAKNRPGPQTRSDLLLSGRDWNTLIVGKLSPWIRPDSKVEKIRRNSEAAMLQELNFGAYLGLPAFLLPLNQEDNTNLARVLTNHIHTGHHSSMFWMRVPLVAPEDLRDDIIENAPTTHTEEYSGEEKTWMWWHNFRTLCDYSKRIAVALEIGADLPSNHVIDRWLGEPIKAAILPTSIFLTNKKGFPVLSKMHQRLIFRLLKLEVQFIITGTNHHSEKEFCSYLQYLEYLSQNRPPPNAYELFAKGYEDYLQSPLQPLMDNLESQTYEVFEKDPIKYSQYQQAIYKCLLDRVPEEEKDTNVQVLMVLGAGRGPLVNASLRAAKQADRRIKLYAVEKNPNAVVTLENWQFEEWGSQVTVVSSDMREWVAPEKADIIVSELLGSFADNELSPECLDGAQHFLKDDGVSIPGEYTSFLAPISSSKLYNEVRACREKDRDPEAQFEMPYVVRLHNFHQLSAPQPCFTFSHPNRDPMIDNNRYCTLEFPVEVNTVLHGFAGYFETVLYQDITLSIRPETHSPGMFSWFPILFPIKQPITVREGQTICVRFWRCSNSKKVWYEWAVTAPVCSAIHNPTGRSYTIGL
Sequence of PRMT5 (Q9BQA1 whole entry partner): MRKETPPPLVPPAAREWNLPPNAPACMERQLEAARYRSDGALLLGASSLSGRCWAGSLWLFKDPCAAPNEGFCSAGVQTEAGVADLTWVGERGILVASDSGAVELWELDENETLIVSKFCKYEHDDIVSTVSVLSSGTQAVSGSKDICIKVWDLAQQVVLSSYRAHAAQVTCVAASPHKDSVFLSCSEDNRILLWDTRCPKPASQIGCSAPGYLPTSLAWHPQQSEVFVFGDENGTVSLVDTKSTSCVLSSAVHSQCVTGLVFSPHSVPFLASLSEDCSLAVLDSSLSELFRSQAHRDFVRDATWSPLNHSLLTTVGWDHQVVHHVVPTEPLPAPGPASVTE
Protocol: Compounds: the compounds of the present invention prepared in the above examples. Each compound was formulated into a 10 mM stock solution with DMSO, and finally diluted into 10 concentrations for detection, with the final concentrations being 10000.00 nM, 3333.33 nM, 1111.11 nM, 370.37 nM, 123.46 nM, 41.15 nM, 13.72 nM, 4.57 nM, 1.52 nM, and 0.51 nM.
Reagents and consumables: PRMTS, purchased from Active Motif, Cat. No. 31921; polypeptide substrate H4(1-21)S1ac, purchased from Gill Biochemical (Shanghai) Co., Ltd., Cat. No. 342095; [^3H]-SAM, purchased From PerkinElmer, Cat. No. NET155V001MC; SAM, purchased from Sigma, Cat. No. A7007-100MG; SAH, purchased from Sigma, Cat. No. A9384-25MG; DTT, purchased from Sangon Bioengineering (Shanghai) Co., Ltd., Cat. No. A620058-0005. Corning-3657, purchased from Corning, Cat. No. 3657; Echo Qualified 384-Well, purchased from Labcyte, Cat. No. P-05525; FlashPlate, purchased from Perkin Elmer, Cat. No. SMP410J001PK.
2.1. Preparation of reaction buffer and reaction stop solution: the composition of 1× reaction buffer was 10 mM Tris-HCl, pH 8.0; 0.01% Tween-20; and 1 mM DTT. The composition of the reaction stop solution was 125 μM […] solution.
The compounds were dissolved in 100% DMSO to prepare 10 mM stock solutions and then diluted to desired concentrations on an Echo 384 well plate.
250 nL of the compounds diluted above were transferred from the Echo 384 well plate to a 384 well reaction plate using the Echo550 instrument.
PRMT5 was added to 1× reaction buffer to form 1.67× enzyme solution.
The polypeptide substrate and [^3H]-SAM were added to 1× reaction buffer to form 2.5× substrate solution (the final concentrations were 100 nM and 250 nM, respectively).
15 μL of 1.67× enzyme solution was added to the wells of a 384 well reaction plate. For control wells without enzymatic activity, the enzyme solution was replaced with 15 μL of 1× reaction buffer. The plate was centrifuged at 1000 rpm for 1 min and incubated at room temperature for 15 min. […]

[2] = target: hERG potassium channel (Homo sapiens (Human), UniProt Q12809)
Sequence of hERG potassium channel (Q12809 whole entry): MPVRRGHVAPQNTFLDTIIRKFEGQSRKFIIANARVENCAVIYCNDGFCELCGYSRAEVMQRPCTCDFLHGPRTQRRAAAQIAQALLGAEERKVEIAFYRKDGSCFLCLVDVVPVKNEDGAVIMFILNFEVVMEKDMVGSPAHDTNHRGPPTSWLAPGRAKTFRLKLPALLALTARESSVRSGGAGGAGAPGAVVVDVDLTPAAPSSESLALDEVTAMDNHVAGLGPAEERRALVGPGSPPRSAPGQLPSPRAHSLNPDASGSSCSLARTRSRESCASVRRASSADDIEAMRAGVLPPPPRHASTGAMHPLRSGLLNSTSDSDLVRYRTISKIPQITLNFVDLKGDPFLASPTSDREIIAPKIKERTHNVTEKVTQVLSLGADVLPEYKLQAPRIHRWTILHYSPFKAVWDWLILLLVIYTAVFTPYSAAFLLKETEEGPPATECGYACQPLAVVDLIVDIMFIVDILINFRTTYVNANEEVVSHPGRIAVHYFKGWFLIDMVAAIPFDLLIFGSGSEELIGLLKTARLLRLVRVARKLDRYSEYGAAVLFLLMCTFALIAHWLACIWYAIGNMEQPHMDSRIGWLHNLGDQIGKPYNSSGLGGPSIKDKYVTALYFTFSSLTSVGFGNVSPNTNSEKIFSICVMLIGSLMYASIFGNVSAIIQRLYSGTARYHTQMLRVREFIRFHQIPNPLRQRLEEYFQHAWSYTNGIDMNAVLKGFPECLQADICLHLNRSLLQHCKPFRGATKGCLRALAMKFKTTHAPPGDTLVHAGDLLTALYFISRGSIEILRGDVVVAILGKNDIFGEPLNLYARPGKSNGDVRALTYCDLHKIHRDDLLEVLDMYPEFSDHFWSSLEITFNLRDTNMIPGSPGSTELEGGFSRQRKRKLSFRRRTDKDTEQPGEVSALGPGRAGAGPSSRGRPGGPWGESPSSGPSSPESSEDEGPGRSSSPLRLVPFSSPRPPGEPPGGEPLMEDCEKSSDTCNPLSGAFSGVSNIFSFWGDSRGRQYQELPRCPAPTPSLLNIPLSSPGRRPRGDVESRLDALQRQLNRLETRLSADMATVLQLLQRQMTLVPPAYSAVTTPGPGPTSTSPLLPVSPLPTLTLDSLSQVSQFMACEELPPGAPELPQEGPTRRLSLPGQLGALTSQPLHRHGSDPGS
Protocol: Preparation of test solvents: preparation of extracellular fluid (mM): 137 NaCl, 4 KCl, 1.8 CaCl2, 1 MgCl2, 10 glucose and 10 HEPES (pH 7.4); preparation of intracellular fluid (mM): 130 KCl, 1 MgCl2, 5 EGTA, 5 MgATP and 10 HEPES (pH 7.2); preparation of negative control: extracellular fluid+0.3% DMSO; positive control: quinidine.
Compound treatment: The compound was weighed and dissolved in DMSO to prepare a 10 mM stock solution, which was diluted with DMSO to form secondary stock solutions with concentrations of 3.3, 1.1, 0.37 and 0.12 mM. 90 μL each of the stock solution and the secondary stock solutions was diluted into 30 mL of extracellular fluid for electrophysiological detection. The final concentrations of the compound were 30, 10, 3.3, 1.1 and 0.37 μM, and the final concentration of DMSO was 3:1000.
Stably transfected cell culture: The cell line was originated from HEK-293 cells overexpressing hERG potassium ion channel. […] The cells were cultured in an incubator at 37° C. and 5% CO2. When the cell density reaches 80% of the petri dish, the cells were first pre-washed with phosphate buffered saline (PBS), then digested with trypsin/EDTA for 2-3 min. Cell culture medium was added to stop the digestion. The cells were gently blown down and transferred to a centrifuge tube, and centrifuged at 1000 rpm for 3 min. The supernatant was discarded, cell culture medium was added, and the cells were mixed uniformly by gentle tapping. After that, the mixture was transferred to a petri dish for subculture, or the cells were dripped on a round glass slide and placed on a petri dish for the cells to adhere for experiments.
Experiments on electrophysiological manual patch-clamp system: The stably transfected cells were inoculated on a glass slide with a cell density lower than 50%, and cultured overnight. The experimental cells were transferred to a bath of about 1 mL embedded in an inverted microscope platform, and the extracellular fluid was perfused at a perfusion rate of 2.7 mL/min. After 5 minutes of stabilization, the experiment was started. Membrane currents were recorded using HEKA EPC-10 patch clamp amplifier and [sequence] acquisition system. All the experiments were performed at room temperature (22-24° C.). Electrodes were drawn straight using P-97 microelectrode drawing instrument (BF150-110-10) in the experiments. The inner diameter of the electrode was 1-1.5 mm, and the pipette resistance after filling with the inner liquid was 2-4 MΩ. The electrophysiological stimulation scheme of hERG potassium channel included: first setting the membrane voltage at −80 mV, applying a stimulation to the cells at +20 mV voltage for 2 s to activate the hERG potassium channel, and then repolarizing to −50 mV for 5 s to generate an outward tail current. The stimulation frequency was once every 15 s. The current value was the peak value of the tail current. The channel currents were recorded in the whole-cell recording mode. Firstly, the extracellular fluid was perfused (about 2 mL per minute) while recording was continued. When the current was stabilized (the current decay (Run-Down) was less than 5% within 5 minutes), the peak value of the tail current was the control current value. Then, the extracellular fluid containing the drug to be tested was perfused while the recording was continued until the inhibitory effect of the drug on the hERG current reached a steady state. At this time, the peak value of the tail current was the current value after drug addition. […]

| SMILES | pIC50 [1] | inhibitory effect on the hERG potassium channel (in words) [2] |
| --- | --- | --- |
| CC(=O)N1CC2(CC(Nc3cc4c(cn3)C3(CC3)CN(C[C@H](O)CN3CCc5ccccc5C3)C4=O)C2)C1 [Example 2, (R)-7′-((2-acetyl-2-azaspiro[3.3]hept-6-yl)amino)-2′-(3-(3,4-dihydroisoquinolin-2(1H)-yl)-2-hydroxypropyl)-2′,3′-dihydro-1′H-spiro[cyclopropane-1,4′-[2,6]naphthyridin]-1-one] | 7.30 | weak inhibitory effect |
| CC(=O)N1CCC(Nc2cc3c(cn2)C2(CC2)CN(C[C@H](O)CN2CCc4ccccc4C2)C3=O)CC1 [Example 1, (R)-7′-((1-acetylpiperidin-4-yl)amino)-2′-(3-(3,4-dihydroisoquinolin-2(1H)-yl)-2-hydroxypropyl)-2′,3′-dihydro-1′H-spiro[cyclopropane-1,4′-[2,6]naphthyridin]-1′-one] | 7.49 |  |
